Calls of active or inactive are those of the source. The calls are words filed in the database; no cut-off is given here.
Columns and labels:
RAW264.7 [1] = test: Cytotoxicity against LPS-induced mouse RAW264.7 cells assessed as reduction in cell viability at 20 uM incubated for 24 hrs by MTT assay; assay type: toxicity, cell-based; settings: raw264.7, 24 h
RAW264.7 [2] = test: Antiinflammatory activity in LPS-induced mouse RAW264.7 cells assessed as inhibition of NO production at 20 uM measured after 24 hrs by Griess reagent based assay; assay type: functional, cell-based
RAW264.7 [3] = test: Antiinflammatory activity in LPS-induced mouse RAW264.7 cells assessed as inhibition of NO production measured after 24 hrs by Griess reagent based analysis; assay type: functional, cell-based; settings: dose 0.1-20 µM
RAW264.7 [4] = test: Antiinflammatory activity in LPS-induced mouse RAW264.7 cells assessed as inhibition of NLRP3 protein expression at 20 uM measured after 24 hrs by Western blot analysis; assay type: functional, cell-based
RAW264.7 [5] = test: Antiinflammatory activity in LPS-induced mouse RAW264.7 cells assessed as reduction in iNOS protein expression at 20 uM measured after 24 hrs by Western blot analysis; assay type: functional, cell-based

Row | SMILES | Activity (RAW264.7 [1]) | Activity (RAW264.7 [2]) | Activity (RAW264.7 [3]) | Activity (RAW264.7 [4]) | Activity (RAW264.7 [5])
1 | COc1ccc([C@@H](C)[C@@H]2NC(=O)[C@@H](C(C)C)NC(=O)CNC(=O)[C@H](Cc3ccccc3)NC(=O)c3cccc(O)c3NC2=O)cc1 | Non-Toxic | Active | – | – | –
2 | CC[C@H](C)[C@H]1NC(=O)CNC(=O)[C@H](Cc2ccccc2)NC(=O)c2cccc(O)c2NC(=O)[C@H]([C@H](C)c2ccc(OC)cc2)NC1=O | Non-Toxic | Active | – | – | –
3 | COc1ccc([C@@H](C)[C@@H]2NC(=O)[C@@H](C(C)C)NC(=O)CNC(=O)[C@H](CCC(C)C)NC(=O)c3cccc(O)c3NC2=O)cc1 | Non-Toxic | Active | – | – | –
4 | COc1ccc([C@@H](C)[C@@H]2NC(=O)[C@@H](CC(C)C)NC(=O)CNC(=O)[C@H](CCC(C)C)NC(=O)c3cccc(O)c3NC2=O)cc1 | Non-Toxic | Active | – | – | –
5 | COc1ccc([C@@H](C)[C@@H]2NC(=O)[C@@H](CC(C)C)NC(=O)CNC(=O)[C@@H](Cc3ccccc3)NC(=O)c3cccc(O)c3NC2=O)cc1 | Non-Toxic | Active | Dose-Dependent Effect | Active | Active
6 | CC[C@H](C)[C@H]1NC(=O)CNC(=O)[C@H](CCC(C)C)NC(=O)c2cccc(O)c2NC(=O)[C@H]([C@H](C)c2ccc(OC)cc2)NC1=O | Non-Toxic | Active | – | – | –
7 | CC[C@@H](C)[C@H]1NC(=O)CNC(=O)[C@H](CC(C)C)NC(=O)c2cccc(O)c2NC(=O)[C@H]([C@H](C)c2ccc(OC)cc2)NC1=O | Non-Toxic | Active | – | – | –

From ChEMBL document CHEMBL5370563, “Molecular Networking-Guided Isolation of Cyclopentapeptides from the Hydrothermal Vent Sediment Derived Fungus Aspergillus pseudoviridinutans TW58-5 and Their Anti-inflammatory Effects” (J Nat Prod, 2023)
